The target of the series is ATP-binding cassette sub-family C member 2 (Rattus norvegicus, UniProt Q63120). In words: TP_TRANSPORTER: Western in vivo, liver of SD rat. The format is functional, organism-based, Sprague-Dawley.

One molecule from ChEMBL document CHEMBL2073742, “The rat canalicular conjugate export pump (Mrp2) is down-regulated in intrahepatic and obstructive cholestasis” (Gastroenterology, 1997) can be followed below.

Molecules are shown by their SMILES.

ATP-binding cassette sub-family C member 2, sequence (Q63120 whole entry): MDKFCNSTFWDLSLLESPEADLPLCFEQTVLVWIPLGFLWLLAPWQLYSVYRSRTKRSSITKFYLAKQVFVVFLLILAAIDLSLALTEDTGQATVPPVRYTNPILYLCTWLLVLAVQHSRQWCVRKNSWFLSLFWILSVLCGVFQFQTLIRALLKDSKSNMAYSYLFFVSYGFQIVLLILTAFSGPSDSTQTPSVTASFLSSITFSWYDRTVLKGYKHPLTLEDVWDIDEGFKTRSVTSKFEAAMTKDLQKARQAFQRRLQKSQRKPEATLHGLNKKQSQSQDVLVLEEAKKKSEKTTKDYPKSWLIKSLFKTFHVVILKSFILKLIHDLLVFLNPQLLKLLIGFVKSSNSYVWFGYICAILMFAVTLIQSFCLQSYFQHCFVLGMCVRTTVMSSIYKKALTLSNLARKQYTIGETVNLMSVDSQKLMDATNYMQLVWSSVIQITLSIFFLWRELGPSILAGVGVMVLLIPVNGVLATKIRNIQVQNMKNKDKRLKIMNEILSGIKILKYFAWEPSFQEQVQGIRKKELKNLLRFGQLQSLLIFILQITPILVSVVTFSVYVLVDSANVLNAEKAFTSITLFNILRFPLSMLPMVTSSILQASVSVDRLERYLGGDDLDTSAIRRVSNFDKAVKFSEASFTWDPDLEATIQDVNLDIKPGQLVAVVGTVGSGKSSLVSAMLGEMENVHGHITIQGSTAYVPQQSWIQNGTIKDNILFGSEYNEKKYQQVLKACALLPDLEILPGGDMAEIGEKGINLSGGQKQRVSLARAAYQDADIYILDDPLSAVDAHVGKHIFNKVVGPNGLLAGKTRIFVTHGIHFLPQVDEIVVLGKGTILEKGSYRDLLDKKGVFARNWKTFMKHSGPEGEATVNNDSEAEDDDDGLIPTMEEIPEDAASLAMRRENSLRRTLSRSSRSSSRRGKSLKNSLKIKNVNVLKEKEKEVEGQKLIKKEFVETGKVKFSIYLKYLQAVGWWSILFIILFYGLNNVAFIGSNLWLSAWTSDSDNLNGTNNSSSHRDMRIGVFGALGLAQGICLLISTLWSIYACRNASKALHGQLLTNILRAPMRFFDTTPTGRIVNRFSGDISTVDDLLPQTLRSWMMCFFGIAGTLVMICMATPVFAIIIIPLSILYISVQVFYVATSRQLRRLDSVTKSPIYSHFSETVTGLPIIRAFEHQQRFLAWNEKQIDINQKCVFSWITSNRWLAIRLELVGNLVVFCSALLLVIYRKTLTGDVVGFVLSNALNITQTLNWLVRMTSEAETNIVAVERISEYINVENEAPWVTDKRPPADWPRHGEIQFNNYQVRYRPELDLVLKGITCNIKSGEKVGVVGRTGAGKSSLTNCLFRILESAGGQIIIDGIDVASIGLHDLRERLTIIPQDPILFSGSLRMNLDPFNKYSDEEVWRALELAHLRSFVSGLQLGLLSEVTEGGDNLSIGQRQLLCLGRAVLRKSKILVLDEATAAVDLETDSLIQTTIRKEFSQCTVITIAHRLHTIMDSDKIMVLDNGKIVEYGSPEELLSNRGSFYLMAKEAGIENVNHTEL

Consider `C#C[C@]1(O)CC[C@H]2[C@@H]3CCc4cc(O)ccc4[C@H]3CC[C@@]21C` [ETHINYL ESTRADIOL], for which the Activity result is “inducer [Decrease]”.
